Reference: ChEMBL document CHEMBL1144754, “Formation of fluorine-18 labeled diaryl ureas--labeled VEGFR-2/PDGFR dual inhibitors as molecular imaging agents for angiogenesis” (Bioorg Med Chem, 2008)

What was measured:
Plasma = assay: Ex vivo stability in human plasma assessed as radioactivity at 300 uCi upto 120 hrs; format: ADME, cell-free
[1] = Inhibition of VEGFR expressed in PAE cells by Western blot analysis; format: cell-based
[2] = Inhibition of PDGFR expressed in NIH cells by Western blot analysis; format: cell-based
[3] = molecular target: Epidermal growth factor receptor (Homo sapiens, UniProt P00533); assay: Inhibition of EGFR expressed in DHER14 cells by Western blot analysis; format: cell-based
[4] = molecular target: Receptor tyrosine-protein kinase erbB-2 (Homo sapiens, UniProt P04626); assay: Inhibition of Her2 expressed in CSH12 cells by Western blot analysis; format: cell-based
[5] = molecular target: Insulin-like growth factor 1 receptor (Homo sapiens, UniProt P08069); assay: Inhibition of IGF1R by ELISA
Sequence of Insulin-like growth factor 1 receptor (P08069 31-736 limits assumed): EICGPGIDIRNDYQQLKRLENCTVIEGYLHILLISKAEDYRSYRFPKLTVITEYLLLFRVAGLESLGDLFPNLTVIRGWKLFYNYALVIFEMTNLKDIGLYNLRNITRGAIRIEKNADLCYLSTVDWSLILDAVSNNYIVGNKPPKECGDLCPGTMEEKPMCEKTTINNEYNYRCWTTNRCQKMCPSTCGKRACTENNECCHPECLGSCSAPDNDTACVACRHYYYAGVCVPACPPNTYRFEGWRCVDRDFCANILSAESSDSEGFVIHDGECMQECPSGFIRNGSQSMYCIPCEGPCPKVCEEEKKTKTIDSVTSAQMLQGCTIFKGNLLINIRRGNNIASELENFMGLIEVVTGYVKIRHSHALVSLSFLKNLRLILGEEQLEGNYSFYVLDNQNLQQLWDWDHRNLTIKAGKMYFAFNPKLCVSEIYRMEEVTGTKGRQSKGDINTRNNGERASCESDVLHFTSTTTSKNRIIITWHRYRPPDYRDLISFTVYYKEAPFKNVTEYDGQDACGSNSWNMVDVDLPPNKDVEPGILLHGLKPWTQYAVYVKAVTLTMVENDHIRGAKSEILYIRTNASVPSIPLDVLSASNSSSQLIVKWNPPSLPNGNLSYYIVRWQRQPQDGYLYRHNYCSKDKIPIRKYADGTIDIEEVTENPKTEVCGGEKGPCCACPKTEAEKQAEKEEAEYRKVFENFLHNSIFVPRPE
Sequence of Insulin-like growth factor 1 receptor (P08069 741-1367 limits assumed): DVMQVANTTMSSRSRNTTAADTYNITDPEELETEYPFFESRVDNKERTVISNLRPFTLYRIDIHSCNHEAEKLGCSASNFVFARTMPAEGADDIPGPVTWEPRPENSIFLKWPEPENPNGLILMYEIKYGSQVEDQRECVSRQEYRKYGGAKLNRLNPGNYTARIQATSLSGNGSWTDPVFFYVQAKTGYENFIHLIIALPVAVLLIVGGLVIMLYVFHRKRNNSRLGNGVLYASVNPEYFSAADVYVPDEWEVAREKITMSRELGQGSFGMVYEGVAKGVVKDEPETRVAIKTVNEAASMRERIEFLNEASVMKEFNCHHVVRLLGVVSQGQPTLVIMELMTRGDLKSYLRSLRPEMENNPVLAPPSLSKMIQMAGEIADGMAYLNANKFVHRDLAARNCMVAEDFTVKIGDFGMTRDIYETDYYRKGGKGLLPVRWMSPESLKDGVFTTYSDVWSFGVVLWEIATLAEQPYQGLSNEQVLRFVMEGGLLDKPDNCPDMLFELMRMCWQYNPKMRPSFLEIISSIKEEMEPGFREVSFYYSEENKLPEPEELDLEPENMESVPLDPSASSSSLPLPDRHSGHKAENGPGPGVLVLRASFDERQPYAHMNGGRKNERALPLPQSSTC

Sequence of Receptor tyrosine-protein kinase erbB-2 (P04626 whole entry): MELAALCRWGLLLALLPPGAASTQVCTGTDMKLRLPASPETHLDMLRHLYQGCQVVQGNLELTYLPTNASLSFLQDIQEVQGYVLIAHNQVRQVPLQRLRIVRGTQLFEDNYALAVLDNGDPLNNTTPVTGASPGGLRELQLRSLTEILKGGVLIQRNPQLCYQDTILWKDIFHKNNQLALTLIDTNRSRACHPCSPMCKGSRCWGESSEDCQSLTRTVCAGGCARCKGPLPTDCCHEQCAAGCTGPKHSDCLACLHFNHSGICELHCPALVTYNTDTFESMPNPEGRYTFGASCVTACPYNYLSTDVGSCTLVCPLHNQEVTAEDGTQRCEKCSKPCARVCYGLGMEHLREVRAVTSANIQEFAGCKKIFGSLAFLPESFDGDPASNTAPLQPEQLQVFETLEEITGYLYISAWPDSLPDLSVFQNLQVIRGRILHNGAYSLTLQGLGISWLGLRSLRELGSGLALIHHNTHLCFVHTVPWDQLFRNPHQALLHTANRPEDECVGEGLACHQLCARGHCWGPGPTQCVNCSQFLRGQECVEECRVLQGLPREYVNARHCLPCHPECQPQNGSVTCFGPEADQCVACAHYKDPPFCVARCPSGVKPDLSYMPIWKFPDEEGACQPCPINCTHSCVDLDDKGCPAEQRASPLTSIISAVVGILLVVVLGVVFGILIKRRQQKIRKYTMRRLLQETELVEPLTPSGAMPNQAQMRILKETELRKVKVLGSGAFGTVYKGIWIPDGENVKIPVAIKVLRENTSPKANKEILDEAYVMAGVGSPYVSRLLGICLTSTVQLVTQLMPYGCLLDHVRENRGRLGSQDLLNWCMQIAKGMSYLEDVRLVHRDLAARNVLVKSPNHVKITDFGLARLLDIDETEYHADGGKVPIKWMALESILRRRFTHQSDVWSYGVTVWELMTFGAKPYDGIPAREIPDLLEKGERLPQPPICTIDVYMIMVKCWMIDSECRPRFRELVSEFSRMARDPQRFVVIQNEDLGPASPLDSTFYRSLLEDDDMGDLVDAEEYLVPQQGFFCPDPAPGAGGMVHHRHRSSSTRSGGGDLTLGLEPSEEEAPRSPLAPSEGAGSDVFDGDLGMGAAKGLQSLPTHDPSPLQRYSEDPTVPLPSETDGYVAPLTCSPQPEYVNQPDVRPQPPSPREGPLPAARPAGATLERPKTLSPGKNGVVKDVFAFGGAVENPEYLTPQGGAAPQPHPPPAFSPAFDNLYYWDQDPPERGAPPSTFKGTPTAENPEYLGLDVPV
Sequence of Epidermal growth factor receptor (P00533 whole entry): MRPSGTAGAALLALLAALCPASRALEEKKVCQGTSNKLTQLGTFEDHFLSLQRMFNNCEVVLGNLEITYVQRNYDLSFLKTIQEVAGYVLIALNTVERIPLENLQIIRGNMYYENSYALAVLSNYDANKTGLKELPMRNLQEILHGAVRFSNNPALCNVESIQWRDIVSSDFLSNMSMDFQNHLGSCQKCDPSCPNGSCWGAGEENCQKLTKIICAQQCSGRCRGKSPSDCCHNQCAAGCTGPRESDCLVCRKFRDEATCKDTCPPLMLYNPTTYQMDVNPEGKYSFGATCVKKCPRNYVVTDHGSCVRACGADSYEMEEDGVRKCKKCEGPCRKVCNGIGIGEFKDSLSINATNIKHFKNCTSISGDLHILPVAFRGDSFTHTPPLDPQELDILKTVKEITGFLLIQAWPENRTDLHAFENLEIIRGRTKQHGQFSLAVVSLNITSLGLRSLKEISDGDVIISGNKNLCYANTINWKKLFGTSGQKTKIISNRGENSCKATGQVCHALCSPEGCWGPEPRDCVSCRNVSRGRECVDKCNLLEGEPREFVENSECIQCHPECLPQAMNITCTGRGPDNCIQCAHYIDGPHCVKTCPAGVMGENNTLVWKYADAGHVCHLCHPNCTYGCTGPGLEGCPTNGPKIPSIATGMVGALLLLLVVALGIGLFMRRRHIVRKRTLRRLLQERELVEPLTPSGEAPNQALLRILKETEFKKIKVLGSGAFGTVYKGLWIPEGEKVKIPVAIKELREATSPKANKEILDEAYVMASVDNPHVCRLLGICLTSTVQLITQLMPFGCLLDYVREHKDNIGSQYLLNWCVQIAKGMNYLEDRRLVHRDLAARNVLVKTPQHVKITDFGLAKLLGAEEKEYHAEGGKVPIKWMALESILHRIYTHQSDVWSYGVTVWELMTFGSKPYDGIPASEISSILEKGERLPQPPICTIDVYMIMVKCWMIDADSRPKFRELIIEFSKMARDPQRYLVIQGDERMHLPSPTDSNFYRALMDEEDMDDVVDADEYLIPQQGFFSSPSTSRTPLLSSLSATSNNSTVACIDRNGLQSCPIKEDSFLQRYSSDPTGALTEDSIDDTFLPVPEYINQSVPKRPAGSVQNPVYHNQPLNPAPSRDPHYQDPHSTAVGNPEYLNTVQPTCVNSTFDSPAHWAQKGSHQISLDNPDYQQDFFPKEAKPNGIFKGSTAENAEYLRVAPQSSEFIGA

**Q.** For `COc1cc2nccc(Oc3ccc(NC(=O)Nc4ccc([18F])cc4)cc3F)c2cc1OC`, which Stability (Plasma) is on record?
**A.** Stable

**Q.** With `COc1cc2nccc(Oc3ccc(NC(=O)Nc4ccccc4F)cc3F)c2cc1OC` as the molecule, how does the IC50 [1] read?
**A.** 4 nM

**Q.** And the IC50 [2]?
**A.** 2 nM

**Q.** What about the IC50 [3] of the same molecule?
**A.** > 500 nM

**Q.** And the IC50 [4]?
**A.** > 500 nM

**Q.** What about the IC50 [5] of the same molecule?
**A.** > 2000 nM

**Q.** With `COc1cc2nccc(Oc3ccc(NC(=O)Nc4ccc(F)cc4)cc3F)c2cc1OC` as the molecule, how does the IC50 [1] read?
**A.** 8 nM

**Q.** What about the IC50 [2] of the same molecule?
**A.** 2 nM

**Q.** What about the IC50 [3] of the same molecule?
**A.** > 500 nM

**Q.** And the IC50 [4]?
**A.** > 500 nM

**Q.** And the IC50 [5]?
**A.** > 2000 nM

**Q.** Which results are given for `COc1cc2nccc(Oc3ccc(NC(=O)Nc4ccc(F)cc4F)cc3F)c2cc1OC`?
**A.** IC50 [2]: 2 nM; IC50 [3]: > 500 nM; IC50 [4]: > 500 nM; IC50 [5]: > 2000 nM
